Laboratory results reported in ChEMBL document CHEMBL1201862, “PubChem BioAssay data set” (2004).
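Each compound was tested at five concentrations against cells in 96-well plates for 48 hours. The concentration for 50% growth inhibition is given as GI50.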 Active and inactive are the calls of the source. No stated cut-off is given here; in the data, active = GI50 up to about 1.1 µM and inactive = higher.

Legend:
Assay in all cases: inhibition of tumour cell growth, NCI panel, 48 h
Hs-578T = tested on: Hs-578T
SK-OV-3 = tested on: SK-OV-3
UACC-257 = tested on: UACC-257
HT-29 = tested on: HT-29
MDA-MB-435 = tested on: MDA-MB-435
K562 = tested on: K562
MOLT-4 = tested on: MOLT-4
SK-MEL-28 = tested on: SK-MEL-28
COLO 205 = tested on: COLO 205
SNB-75 = tested on: SNB-75
HCC 2998 = tested on: HCC 2998
T47D = tested on: T47D
ACHN = tested on: ACHN
MDA-MB-231 = tested on: MDA-MB-231
TK-10 = tested on: TK-10
786-0 = tested on: 786-0
UO-31 = tested on: UO-31
EKVX = tested on: EKVX
M14 = tested on: M14
SK-MEL-5 = tested on: SK-MEL-5
PC-3 = tested on: PC-3
NCI/ADR-RES = tested on: NCI/ADR-RES
U-251 = tested on: U-251
SR = tested on: SR
IGROV-1 = tested on: IGROV-1
SF-268 = tested on: SF-268
SN12C = tested on: SN12C
SF-539 = tested on: SF-539
CCRF-CEM = tested on: CCRF-CEM
MCF7 = tested on: MCF7
A549 = tested on: A549
RPMI-8226 = tested on: RPMI-8226
OVCAR-4 = tested on: OVCAR-4
HCT-116 = tested on: HCT-116
SW-620 = tested on: SW-620
OVCAR-8 = tested on: OVCAR-8
OVCAR-5 = tested on: OVCAR-5
HL-60 = tested on: HL-60
HOP-62 = tested on: HOP-62
NCI-H522 = tested on: NCI-H522
SF-295 = tested on: SF-295
SNB-19 = tested on: SNB-19
KM12 = tested on: KM12
MDA-N = tested on: MDA-N
HCT-15 = tested on: HCT-15
NCI-H460 = tested on: NCI-H460
A498 = tested on: A498
CAKI-1 = tested on: CAKI-1
SK-MEL-2 = tested on: SK-MEL-2
HOP-92 = tested on: HOP-92
NCI-H226 = tested on: NCI-H226
NCI-H23 = tested on: NCI-H23
DU-145 = tested on: DU-145
RXF 393 = tested on: RXF 393
Malme-3M = tested on: Malme-3M
OVCAR-3 = tested on: OVCAR-3
UACC-62 = tested on: UACC-62

With `CC1=CC(=O)/C(=C(/C)NCCN(CCN/C(C)=C2\C(=O)C=C(C)OC2=O)CCN/C(C)=C2\C(=O)C=C(C)OC2=O)C(=O)O1` the GI50 (Hs-578T) was > 100 µM (inactive), the GI50 (SK-OV-3) was > 100 µM (inactive) and the GI50 (UACC-257) was > 100 µM (inactive). For the same compound, the GI50 (HT-29) was > 100 µM (inactive), the GI50 (MDA-MB-435) was > 100 µM (inactive) and the GI50 (K562) was > 100 µM (inactive). For the same compound, the GI50 (MOLT-4) was > 100 µM (inactive), the GI50 (SK-MEL-28) was > 100 µM (inactive) and the GI50 (COLO 205) was > 100 µM (inactive). For the same compound, the GI50 (SNB-75) was > 100 µM (inactive), the GI50 (HCC 2998) was > 100 µM (inactive) and the GI50 (T47D) was > 100 µM (inactive). The GI50 (ACHN) was > 100 µM (inactive), the GI50 (MDA-MB-231) was > 100 µM (inactive) and the GI50 (TK-10) was > 100 µM (inactive). The GI50 (786-0) was > 100 µM (inactive), the GI50 (UO-31) was > 100 µM (inactive) and the GI50 (EKVX) was > 100 µM (inactive). The GI50 (M14) was > 100 µM (inactive), the GI50 (SK-MEL-5) was > 100 µM (inactive) and the GI50 (PC-3) was > 100 µM (inactive). For the same compound, the GI50 (NCI/ADR-RES) was > 100 µM (inactive), the GI50 (U-251) was > 100 µM (inactive) and the GI50 (SR) was > 100 µM (inactive). For the same compound, the GI50 (IGROV-1) was > 100 µM (inactive), the GI50 (SF-268) was > 100 µM (inactive) and the GI50 (SN12C) was > 100 µM (inactive). For the same compound, the GI50 (SF-539) was > 100 µM (inactive), the GI50 (CCRF-CEM) was > 100 µM (inactive) and the GI50 (MCF7) was > 100 µM (inactive). The GI50 (A549) was > 100 µM (inactive), the GI50 (RPMI-8226) was > 100 µM (inactive) and the GI50 (OVCAR-4) was > 100 µM (inactive). For the same compound, the GI50 (HCT-116) was > 100 µM (inactive), the GI50 (SW-620) was > 100 µM (inactive) and the GI50 (OVCAR-8) was > 100 µM (inactive). The GI50 (OVCAR-5) was > 100 µM (inactive), the GI50 (HL-60) was > 100 µM (inactive) and the GI50 (HOP-62) was > 100 µM (inactive). The GI50 (NCI-H522) was > 100 µM (inactive), the GI50 (SF-295) was > 100 µM (inactive) and the GI50 (SNB-19) was > 100 µM (inactive). For the same compound, the GI50 (KM12) was > 100 µM (inactive), the GI50 (MDA-N) was > 100 µM (inactive) and the GI50 (HCT-15) was greater than 100 µM. The GI50 (NCI-H460) was > 100 µM (inactive).

`Oc1cn(-c2ccc(Cl)cc2)nc1-c1n[nH]c(=S)n1-c1ccccc1` was tested, and the GI50 (Hs-578T) was 7.64 µM (inactive), the GI50 (SK-OV-3) was 17.2 µM (inactive) and the GI50 (UACC-257) was 20.7 µM (inactive). For the same compound, the GI50 (HT-29) was 19.8 µM (inactive), the GI50 (MDA-MB-435) was 1.95 µM (inactive) and the GI50 (K562) was 3.95 µM (inactive). The GI50 (MOLT-4) was 62.7 µM (inactive), the GI50 (SK-MEL-28) was 16.8 µM (inactive) and the GI50 (COLO 205) was 23 µM (inactive). The GI50 (A498) was 14 µM (inactive), the GI50 (CAKI-1) was 8.09 µM (inactive) and the GI50 (SNB-75) was 21.1 µM (inactive). The GI50 (SK-MEL-2) was 22.4 µM (inactive), the GI50 (T47D) was 19.5 µM (inactive) and the GI50 (ACHN) was 18.8 µM (inactive). For the same compound, the GI50 (MDA-MB-231) was 57.5 µM (inactive), the GI50 (TK-10) was 22 µM (inactive) and the GI50 (HOP-92) was > 100 µM (inactive). For the same compound, the GI50 (786-0) was 11.6 µM (inactive), the GI50 (UO-31) was 14.2 µM (inactive) and the GI50 (NCI-H226) was 6.22 µM (inactive). The GI50 (EKVX) was 27.2 µM (inactive), the GI50 (M14) was 7 µM (inactive) and the GI50 (SK-MEL-5) was 4.19 µM (inactive). For the same compound, the GI50 (PC-3) was 27.5 µM (inactive), the GI50 (NCI/ADR-RES) was 3.79 µM (inactive) and the GI50 (U-251) was 10.8 µM (inactive). For the same compound, the GI50 (SR) was 2.97 µM (inactive), the GI50 (IGROV-1) was 4.6 µM (inactive) and the GI50 (SF-268) was 10.4 µM (inactive). The GI50 (SN12C) was 17.8 µM (inactive), the GI50 (SF-539) was 5.92 µM (inactive) and the GI50 (NCI-H23) was 10.5 µM (inactive). For the same compound, the GI50 (DU-145) was 22.3 µM (inactive), the GI50 (MCF7) was 4.42 µM (inactive) and the GI50 (A549) was 14.1 µM (inactive). For the same compound, the GI50 (RPMI-8226) was 5.46 µM (inactive), the GI50 (RXF 393) was 11.1 µM (inactive) and the GI50 (Malme-3M) was 16.2 µM (inactive). The GI50 (OVCAR-4) was 52.6 µM (inactive), the GI50 (HCT-116) was 6.37 µM (inactive) and the GI50 (SW-620) was 5.07 µM (inactive). The GI50 (OVCAR-3) was 2.51 µM (inactive), the GI50 (OVCAR-8) was 14.9 µM (inactive) and the GI50 (OVCAR-5) was 24.2 µM (inactive). The GI50 (HL-60) was 4.13 µM (inactive), the GI50 (HOP-62) was 10 µM (inactive) and the GI50 (NCI-H522) was 5.01 µM (inactive). The GI50 (UACC-62) was 11.4 µM (inactive), the GI50 (SF-295) was 4.94 µM (inactive) and the GI50 (SNB-19) was 16.8 µM (inactive). The GI50 (KM12) was 4.36 µM (inactive), the GI50 (HCT-15) was 3.36 µM and the GI50 (NCI-H460) was 10.6 µM (inactive).

`C[n+]1c(-c2ccc(/C=N/Nc3n[nH]c(=S)n3N/N=C/c3ccc(-c4cn5ccccc5[n+]4C)cc3)cc2)cn2ccccc21` was tested, and the GI50 (Hs-578T) was > 100 µM (inactive), the GI50 (SK-OV-3) was > 100 µM (inactive) and the GI50 (UACC-257) was > 100 µM (inactive). For the same compound, the GI50 (HT-29) was > 100 µM (inactive), the GI50 (MDA-MB-435) was > 100 µM (inactive) and the GI50 (K562) was > 100 µM (inactive). For the same compound, the GI50 (MOLT-4) was > 100 µM (inactive), the GI50 (SK-MEL-28) was > 100 µM (inactive) and the GI50 (COLO 205) was > 100 µM (inactive). The GI50 (SNB-75) was > 100 µM (inactive), the GI50 (HCC 2998) was > 100 µM (inactive) and the GI50 (T47D) was > 100 µM (inactive). For the same compound, the GI50 (ACHN) was > 100 µM (inactive), the GI50 (MDA-MB-231) was > 100 µM (inactive) and the GI50 (TK-10) was > 100 µM (inactive). For the same compound, the GI50 (786-0) was > 100 µM (inactive), the GI50 (UO-31) was > 100 µM (inactive) and the GI50 (EKVX) was > 100 µM (inactive). The GI50 (M14) was > 100 µM (inactive), the GI50 (SK-MEL-5) was > 100 µM (inactive) and the GI50 (PC-3) was > 100 µM (inactive). The GI50 (NCI/ADR-RES) was > 100 µM (inactive), the GI50 (U-251) was > 100 µM (inactive) and the GI50 (SR) was > 100 µM (inactive). The GI50 (IGROV-1) was > 100 µM (inactive), the GI50 (SF-268) was > 100 µM (inactive) and the GI50 (SN12C) was > 100 µM (inactive). For the same compound, the GI50 (SF-539) was > 100 µM (inactive), the GI50 (CCRF-CEM) was > 100 µM (inactive) and the GI50 (MCF7) was > 100 µM (inactive). For the same compound, the GI50 (A549) was > 100 µM (inactive), the GI50 (RPMI-8226) was > 100 µM (inactive) and the GI50 (OVCAR-4) was > 100 µM (inactive). For the same compound, the GI50 (HCT-116) was > 100 µM (inactive), the GI50 (SW-620) was > 100 µM (inactive) and the GI50 (OVCAR-8) was > 100 µM (inactive). For the same compound, the GI50 (OVCAR-5) was > 100 µM (inactive), the GI50 (HL-60) was > 100 µM (inactive) and the GI50 (HOP-62) was > 100 µM (inactive). The GI50 (NCI-H522) was > 100 µM (inactive), the GI50 (SF-295) was > 100 µM (inactive) and the GI50 (SNB-19) was > 100 µM (inactive). For the same compound, the GI50 (KM12) was > 100 µM (inactive), the GI50 (MDA-N) was > 100 µM (inactive) and the GI50 (HCT-15) was greater than 100 µM. The GI50 (NCI-H460) was > 100 µM (inactive).

In the case of `Nc1ccc(S(=O)(=O)Nc2ncccn2)cc1` [SULFADIAZINE, SILVER], the GI50 (K562) is reported as 2.12 µM (inactive), the GI50 (CCRF-CEM) is reported as 1.82 µM (inactive) and the GI50 (NCI-H522) is reported as 1.77 µM (inactive).

With `Nc1ncnc2c(C3OC(CO)C(O)C3O)nsc12` (stereo not given) the GI50 (A498) was < 0.0115 µM (active).
